# Assay results reported in ChEMBL document CHEMBL4028893, “Discovery and Optimization of Potent, Cell-Active Pyrazole-Based Inhibitors of Lactate Dehydrogenase (LDH)” (J Med Chem, 2017).
# Activity calls are given as the source filed them. No cut-off for these calls is given here.
# Tests used:
# [1] = Inhibition of pig heart MDH using malic acid as substrate preincubated for 10 mins followed by substrate addition measured up to 5 mins by resorufin-based fluorescence assay; design: species or system Sus scrofa
# [2] = Drug level in human A673 cells by LC-MS/MS analysis; type: ADME, cell-based
# [3] = Drug level in human MIAPaCa2 cells by LC-MS/MS analysis; type: ADME, cell-based; conditions: mia paca-2
# L-lactate dehydrogenase [4] = target: T1, L-lactate dehydrogenase (Homo sapiens, UniProt V9HWB9); assay: Inhibition of LDH in human MIAPaCa2 cells assessed as reduction in lactate production preincubated for 2 hrs measured after 30 mins by high throughput fluorescence assay; type: cell-based
# L-lactate dehydrogenase [5] = target: T1, L-lactate dehydrogenase; assay: Inhibition of LDH in human A673 cells assessed as reduction in lactate production preincubated for 2 hrs measured after 30 mins by high throughput fluorescence assay; type: cell-based
# [6] = target: T2, L-lactate dehydrogenase A chain (Homo sapiens, UniProt P00338)
# [7] = target: T2, L-lactate dehydrogenase A chain; remark: listed apart in the source
# Description: (§1) Inhibition of human liver LDHA using sodium pyruvate as substrate after 5 mins in presence of NAPDH and in absence of EDTA by diaphorase/resazurin based fluorescence assay
# [8] = target: T2, L-lactate dehydrogenase A chain; remark: listed apart in the source
# Description: Inhibition of human liver LDHA using sodium pyruvate as substrate after 5 mins in presence of NAPDH and EDTA by diaphorase/resazurin based fluorescence assay
# [9] = target: T2, L-lactate dehydrogenase A chain; remark: listed apart in the source
# Description: as §1
# A673 [10] = assay: Cytotoxicity against human A673 cells after 48 hrs by CellTiter-Glo assay; conditions: A673, 48 h
# A673 [11] = assay: Cytotoxicity against human A673 cells assessed as long term cell growth inhibition measured every 4 hrs for 120 hrs by incucyte zoom live cell analysis; type: functional, cell-based
# [12] = target: Isocitrate dehydrogenase [NADP] cytoplasmic (Homo sapiens, UniProt O75874); assay: Inhibition of wild type IDH1 (unknown origin) using isocitrate as substrate preincubated for 30 mins followed by substrate addition in presence of NADP+ measured up to 5 mins by resorufin-based fluorescence assay
# Sequence of Isocitrate dehydrogenase [NADP] cytoplasmic (O75874 whole entry): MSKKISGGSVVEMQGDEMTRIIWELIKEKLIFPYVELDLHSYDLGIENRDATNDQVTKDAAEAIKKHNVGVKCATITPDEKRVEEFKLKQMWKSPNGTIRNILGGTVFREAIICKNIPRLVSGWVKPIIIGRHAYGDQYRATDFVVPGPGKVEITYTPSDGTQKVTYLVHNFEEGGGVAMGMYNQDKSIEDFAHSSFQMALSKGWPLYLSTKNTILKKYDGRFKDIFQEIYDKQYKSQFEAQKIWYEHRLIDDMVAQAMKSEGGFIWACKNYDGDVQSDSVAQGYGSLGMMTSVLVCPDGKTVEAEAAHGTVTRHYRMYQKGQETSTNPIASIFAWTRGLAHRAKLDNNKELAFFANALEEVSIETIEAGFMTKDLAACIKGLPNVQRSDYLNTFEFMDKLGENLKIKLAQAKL
# MIA PaCa-2 [13] = assay: Cytotoxicity against human MIAPaCa2 cells after 48 hrs by CellTiter-Glo assay; conditions: MIA PaCa-2, 48 h
# MIA PaCa-2 [14] = assay: Cytotoxicity against human MIAPaCa2 cells assessed as long term cell growth inhibition measured every 4 hrs for 120 hrs by incucyte zoom live cell analysis; type: functional, cell-based
# [15] = target: L-lactate dehydrogenase B chain (Homo sapiens, UniProt P07195); assay: Inhibition of human erythrocytes LDHB using sodium pyruvate as substrate after 5 mins in presence of […] by diaphorase/resazurin based fluorescence assay
# Sequence of L-lactate dehydrogenase B chain (P07195 whole entry): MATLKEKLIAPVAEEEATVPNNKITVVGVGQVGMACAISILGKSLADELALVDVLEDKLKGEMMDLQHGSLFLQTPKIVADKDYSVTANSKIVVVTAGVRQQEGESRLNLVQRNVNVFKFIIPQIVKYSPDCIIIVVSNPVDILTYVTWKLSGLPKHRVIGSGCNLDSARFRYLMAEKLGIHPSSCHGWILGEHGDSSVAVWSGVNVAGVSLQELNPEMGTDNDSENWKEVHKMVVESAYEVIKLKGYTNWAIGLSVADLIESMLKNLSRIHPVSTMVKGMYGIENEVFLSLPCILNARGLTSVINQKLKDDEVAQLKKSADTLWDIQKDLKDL
# Mus musculus [16] = assay: Clearance in CD1 mouse plasma at 2 mg/kg, iv measured over 24 hrs post dose by LC/MS/MS analysis; type: ADME, organism-based; conditions: in vivo
# Liver [17] = assay: Drug metabolism in mouse liver microsomes assessed as glucuronidated metabolite formation measured over 90 mins in presence of NADPH/UDPGA; type: ADME, microsome
# Liver [18] = assay: Drug metabolism in human liver microsomes assessed as glucuronidated metabolite formation measured over 90 mins in presence of NADPH/UDPGA; type: ADME, microsome
# Mus musculus [19] = assay: AUClast in CD1 mouse plasma at 2 mg/kg, iv measured over 24 hrs post dose by LC/MS/MS analysis; type: ADME, organism-based; design: dose 2 mg/kg, time 0 - last, route intravenous; conditions: in vivo
# Mus musculus [20] = assay: Volume of distribution at steady state in CD1 mouse plasma at 2 mg/kg, iv measured over 24 hrs post dose by LC/MS/MS analysis; type: ADME, organism-based; conditions: in vivo
# Mus musculus [21] = assay: Cmax in CD1 mouse plasma at 50 mg/kg, po measured over 24 hrs post dose by LC/MS/MS analysis; type: ADME, organism-based; design: dose 50 mg/kg, route oral; conditions: in vivo
# Mus musculus [22] = assay: AUClast in CD1 mouse plasma at 50 mg/kg, po measured over 24 hrs post dose by LC/MS/MS analysis; type: ADME, organism-based; design: dose 50 mg/kg, time 0 - last, route oral; conditions: in vivo
# Mus musculus [23] = assay: Oral bioavailability in CD1 mouse plasma at 50 mg/kg measured over 24 hrs post dose by LC/MS/MS analysis; type: ADME, organism-based; conditions: in vivo
SMILES,IC50 [1],Drug uptake [2],Drug uptake [3],inhibition (L-lactate dehydrogenase [4]),inhibition (L-lactate dehydrogenase [5]),IC50 [7],IC50 [8],IC50 [12],further results
NS(=O)(=O)c1ccc(Oc2c(-c3cccc(-c4ccccc4)c3)nn(-c3nc(C(=O)O)cs3)c2C2CC2)cc1,> 57 µM,Active,Active,–,–,–,–,–,–
O=C(O)c1csc(-n2nc(-c3ccccc3)cc2C(F)(F)F)n1,–,–,–,inactive,inactive,22.2 µM,28.8 µM,–,EC50 [6]: > 100 µM; Efficacy [9]: 40 to 60%
COc1ncc(-c2ccc3c(Nc4cc(Oc5cc(F)cc(F)c5)cc(C(=O)O)c4)c(S(=O)(=O)NC4CC4)cnc3c2)c(OC)n1,37.8 µM,Active,Active,–,–,–,–,> 57 µM,IC50 (A673 [10]): > 57 µM; IC50 (A673 [11]): 0.84 µM; IC50 (L-lactate dehydrogenase [4]): 12.6 µM; IC50 (L-lactate dehydrogenase [5]): 14.5 µM; IC50 (MIA PaCa-2 [13]): 28.4 µM; IC50 (MIA PaCa-2 [14]): 1.37 µM
NS(=O)(=O)c1ccc(Cc2c(-c3cccc(-c4ccccc4)c3)nn(-c3nc(C(=O)O)cs3)c2C(F)(F)F)cc1,48.6 µM,Active,Active,–,–,–,–,33.5 µM,–
NS(=O)(=O)c1ccc(Cc2cn(-c3nc(C(=O)O)cs3)nc2-c2ccc(F)c(F)c2)cc1,> 57 µM,Active,Active,–,–,0.095 µM,0.095 µM,> 57 µM,IC50 (A673 [10]): > 57 µM; IC50 [15]: 0.129 µM
NS(=O)(=O)c1ccc(Cc2c(-c3cccc(-c4ccccc4)c3)nn(-c3nc(C(=O)O)cs3)c2O)cc1,> 57 µM,Active,Active,–,–,–,–,47.4 µM,–
NS(=O)(=O)c1ccc(Cc2c(-c3cccc(-c4ccccc4)c3)nn(-c3nc(C(=O)O)cs3)c2C2CC2)cc1,42.4 µM,Active,Active,–,–,–,–,33.5 µM,CL (Mus musculus [16]): 227 L/h/kg; Drug metabolism (Liver [17]): Metabolite_Notdetected; Drug metabolism (Liver [18]): Metabolite_Notdetected; AUClast (Mus musculus [19]): 0.26 µM·h; Vdss (Mus musculus [20]): 5.6 L/kg; Cmax (Mus musculus [21]): 1200 nM; AUClast (Mus musculus [22]): 3.2 µM·h; F (Mus musculus [23]): 49%
NS(=O)(=O)c1ccc(Cc2c(-c3ccccc3)nn(-c3nc(C(=O)O)cs3)c2-c2cccnc2)cc1,> 57 µM,Active,Active,–,–,–,–,> 57 µM,–
O=C1N[C@](c2ccc(N3CCOCC3)cc2)(c2ccsc2)CC(O)=C1Sc1ccccc1Cl,> 57 µM,Active,Active,–,–,–,–,> 57 µM,–
NS(=O)(=O)c1ccc(Cc2c(-c3ccc(F)c(F)c3)nn(-c3nc(C(=O)O)cs3)c2O)cc1,> 57 µM,Active,Active,–,–,–,–,> 57 µM,IC50 (A673 [10]): > 57 µM; IC50 (MIA PaCa-2 [13]): > 57 µM
Cc1nc2ccc(NC(=O)CCNC(=O)CCCc3ccc(CC(C(=O)O)C(=O)O)cc3)cc2s1,> 57 µM,Active,Active,–,–,–,1.34 µM,> 57 µM,IC50 (A673 [11]): > 20 µM; IC50 [15]: 9.2 µM; IC50 (MIA PaCa-2 [14]): > 20 µM; EC50 [6]: 1.6 µM
NS(=O)(=O)c1ccc(Cc2c(-c3cccc(-c4ccccc4F)c3)nn(-c3nc(C(=O)O)cs3)c2O)cc1,–,Active,Active,–,–,–,–,> 57 µM,–
NS(=O)(=O)c1ccc(Cc2c(-c3ccccc3)nn(-c3nc(C(=O)O)cs3)c2-c2ccncc2)cc1,> 57 µM,Active,Active,–,–,6.23 µM,6.23 µM,> 57 µM,IC50 [15]: 2.82 µM
O=C(O)c1csc(-n2nc(-c3ccccc3)cc2O)n1,–,–,–,inactive,inactive,0.144 µM,> 57 µM,–,–
O=C(O)c1csc(-n2nc(-c3ccc(F)cc3)cc2O)n1,–,–,–,inactive,inactive,0.095 µM,> 57 µM,–,–
O=C(O)c1csc(-n2nc(-c3ccccc3F)cc2O)n1,–,–,–,inactive,inactive,0.134 µM,> 57 µM,–,–
Nc1c(Cc2ccc(S(N)(=O)=O)cc2)c(-c2cccc(-c3ccccc3)c2)nn1-c1nc(C(=O)O)cs1,26.8 µM,Active,Active,–,–,–,–,> 57 µM,–
O=C(O)c1csc(-n2nc(C3CCCCC3)cc2O)n1,–,–,–,inactive,inactive,1.1 µM,> 57 µM,–,–
NS(=O)(=O)c1ccc(Nc2cn(-c3nc(C(=O)O)cs3)nc2-c2cccc(-c3ccccc3)c2)cc1,37.8 µM,Active,Active,–,–,–,–,> 57 µM,–

SMILES,IC50 [1],Drug uptake [2],Drug uptake [3],inhibition (L-lactate dehydrogenase [4]),inhibition (L-lactate dehydrogenase [5]),IC50 [7],IC50 [8],IC50 [12],further results
COc1ccc(-c2cc(O)n(-c3nc(C(=O)O)cs3)n2)cc1,–,–,–,inactive,inactive,0.229 µM,> 57 µM,–,–
O=C(O)c1csc(-n2nc(-c3cccc(F)c3)cc2O)n1,–,–,–,inactive,inactive,0.162 µM,> 57 µM,–,–
O=C(O)c1csc(-n2nc(-c3ccccc3Cl)cc2C(F)(F)F)n1,–,–,–,inactive,inactive,> 57 µM,> 57 µM,–,–
CC(C)c1cc(-c2ccccc2)nn1-c1nc(C(=O)O)cs1,–,–,–,inactive,inactive,> 57 µM,> 57 µM,–,–
O=C(O)c1csc(-n2nc(-c3cccc(-c4ccccc4)c3)cc2O)n1,–,–,–,inactive,inactive,0.266 µM,> 57 µM,–,–
NS(=O)(=O)c1ccc(Cc2c(-c3ccccc3)nn(-c3nc(C(=O)O)cs3)c2C2CC2)cc1,37.8 µM,Active,Active,–,–,–,–,> 57 µM,–
O=C(O)c1csc(-n2nc(-c3ccc(F)cc3F)cc2O)n1,–,–,–,inactive,inactive,0.084 µM,> 57 µM,–,–
NS(=O)(=O)c1ccc(Nc2cn(-c3nc(C(=O)O)cs3)nc2-c2ccccc2)cc1,> 57 µM,Active,Active,–,–,–,–,> 57 µM,–
NS(=O)(=O)c1ccc(Cc2c(-c3ccccc3)nn(-c3nc(C(=O)O)cs3)c2CC2CC2)cc1,> 57 µM,Active,Active,–,–,–,–,47.4 µM,–
O=C(O)c1csc(-n2nc(-c3ccc(Cl)cc3)cc2C(F)(F)F)n1,–,–,–,inactive,inactive,26.6 µM,27.7 µM,–,–
O=C(O)c1csc(-n2nc(-c3ccncc3)cc2O)n1,–,–,–,inactive,inactive,0.669 µM,> 57 µM,–,–
CC(=O)Nc1cc(-c2ccccc2)nn1-c1nc(C(=O)O)cs1,–,–,–,inactive,inactive,9.57 µM,> 57 µM,–,–
O=C(O)c1csc(-n2nc(-c3cccc(Cl)c3)cc2C(F)(F)F)n1,–,–,–,inactive,inactive,> 57 µM,> 57 µM,–,–
NS(=O)(=O)c1ccc(Cc2cn(-c3nc(C(=O)O)cs3)nc2-c2cccc(-c3ccccc3)c2)cc1,48.6 µM,Active,Active,–,–,–,–,47.4 µM,–
NS(=O)(=O)c1ccc(Cc2cn(-c3nc(C(=O)O)cs3)nc2-c2ccccc2)cc1,> 57 µM,Active,Active,–,–,0.177 µM,0.176 µM,> 57 µM,–
O=C(O)c1csc(-n2nc(-c3cccc(-c4ccccc4F)c3)cc2O)n1,–,–,–,inactive,inactive,0.095 µM,> 57 µM,–,–
O=C(O)c1csc(-n2nc(-c3cc(F)cc(F)c3)cc2O)n1,–,–,–,inactive,inactive,0.11 µM,> 57 µM,–,–
NS(=O)(=O)c1ccc(Cc2c(-c3cccc(Br)c3)nn(-c3nc(C(=O)O)cs3)c2O)cc1,–,Active,Active,–,–,–,–,> 57 µM,IC50 [15]: 1.51 µM
